Experimental findings from patent publication US12043594B2, “Biphenyl derivative compound and use thereof” (EWHA UNIVERSITY—INDUSTRY COLLABORATION FOUNDATION, priority 2018, dated 2024) are described below.

The target of one experiment is recombinant Nm23-H1 (Homo sapiens, UniProt P15531). The experiment can be described thus: NDPK assay with recombinant Nm23-H1. As to conditions: 5 ng recombinant Nm23-H1, incubated 10 minutes at room temperature, then 5 μM ADP for 1 minute. The class given is biochemical. How it is done: NDPK assay was performed by incubating 5 ng of recombinant Nm23-H1 with each of test compounds (Examples 1 to 3) in NDPK assay buffer (20 mM HEPES, 3 mM MgCl2) at room temperature for 10 minutes, followed by reaction with 5 μM ADP for 1 minute.

For experiment [1], the system named is MDA-MB-321 cells. The experiment can be described thus: 3D tumor spheroid model. The class given is cell-based. As to conditions: various concentrations, 14 days after treatment, FIG. 4. How it is done: The cancer growth inhibitory effect of administration of the compounds according to the present disclosure was evaluated using a 3D tumor spheroid model. The 3D tumor spheroid structure has characteristics similar to solid cancer under normal stress conditions because it is not easy to transfer nutrients into cancer cells.
Specifically, 7.5 K MDA-MB-321 cells were 3D-cultured in an ultra-low attachment (ULA) 96-well plate (Perkin Elmer) under a 2.5% Matrigel™ (BD Biosciences) condition. 5 days after 3D spheroid production, the cells were treated with various concentrations of the compound (#24) of Example 1 according to the present disclosure, and 14 days after the treatment, the cancer cell growth inhibitory effect of the compound was evaluated.

In experiment [2] the test system is MDA-MB-321 cells. Put plainly: 3D tumor spheroid model, co-treatment with paclitaxel. As to conditions: co-treated with paclitaxel, 14 days after treatment, FIG. 5. The class given is cell-based. How it is done:
In order to evaluate the effect of co-treatment with paclitaxel (PTX) which is used as a chemotherapeutic agent against triple negative breast cancer, the effect of co-treatment was evaluated using a 3D tumor spheroid model in a manner similar to Example 7.
Specifically, 7.5 K MDA-MB-321 cells were 3D-cultured in an ultra-low attachment (ULA) 96-well plate (Perkin Elmer) under a 2.5% Matrigel™ (BD Biosciences) condition. 5 days after 3D spheroid production, the cells were co-treated with the compound (B024) of Example 1 according to the present disclosure and paclitaxel in a concentration-dependent manner, and 14 days after the treatment, the cancer cell growth inhibitory effect of co-treatment was evaluated.

Sequence of recombinant Nm23-H1 (P15531 whole entry): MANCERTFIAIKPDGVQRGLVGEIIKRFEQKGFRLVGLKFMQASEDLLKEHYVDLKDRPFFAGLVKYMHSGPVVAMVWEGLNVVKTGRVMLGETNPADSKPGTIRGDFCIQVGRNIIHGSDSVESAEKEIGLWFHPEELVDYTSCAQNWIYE

In the case of `COc1ccc(-c2cccc(C(O)c3ccc(OC)c(OC)c3)c2)cc1OC` (centres unmarked) [Example 1, (3′,4′-dimethoxy-[1,1′-biphenyl]-3-yl)(3,4-dimethoxyphenyl)methanol], the NDPK activity at recombinant Nm23-H1 amounted to 2.8. Further, the “cancer cell growth in the 3D tumor spheroid model” value with MDA-MB-321 cells [1] is reported as “significantly inhibited cancer cell growth”. Also, the “cancer cell growth in 3D tumor spheroid model, co-administration with paclitaxel” value with MDA-MB-321 cells [2] was “significantly inhibited cancer cell growth even at low concentrations”. In the case of `COc1ccc(Cc2cccc(-c3ccc(OC)c(OC)c3)c2)cc1OC` [Example 2, 3′-(3,4-dimethoxybenzyl)-3,4-dimethoxy-1,1′-biphenyl], at recombinant Nm23-H1, the NDPK activity came out at 1.4. For `COc1ccc(C(=O)c2cccc(-c3ccc(OC)c(OC)c3)c2)cc1OC` [Example 3, (3′,4′-dimethoxy-[1,1′-biphenyl]-3-yl)(3,4-dimethoxyphenyl)methanone], the NDPK activity at recombinant Nm23-H1 is 1.7.
